{"source": "patent US12180197B2", "about": "“GLP-1R modulating compounds” (Gilead Sciences, Inc., priority 2021, dated 2024)", "target": "GLP-1R (Homo sapiens, UniProt P43220)", "sequence (P43220 24-463)": "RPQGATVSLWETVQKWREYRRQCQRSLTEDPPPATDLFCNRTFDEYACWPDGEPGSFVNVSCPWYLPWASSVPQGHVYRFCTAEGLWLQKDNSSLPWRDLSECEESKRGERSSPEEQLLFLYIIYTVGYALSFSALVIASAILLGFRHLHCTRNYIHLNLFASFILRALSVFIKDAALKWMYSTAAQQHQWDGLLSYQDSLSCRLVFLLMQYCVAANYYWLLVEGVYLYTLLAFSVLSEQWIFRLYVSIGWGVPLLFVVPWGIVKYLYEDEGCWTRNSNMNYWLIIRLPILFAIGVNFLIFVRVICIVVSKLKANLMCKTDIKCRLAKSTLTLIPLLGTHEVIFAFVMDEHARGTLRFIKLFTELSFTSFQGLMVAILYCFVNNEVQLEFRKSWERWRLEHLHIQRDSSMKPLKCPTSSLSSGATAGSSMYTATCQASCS", "test": "GLP-1R Activation - cAMP Assay 1", "assay_type": "cell-based", "conditions": "cAMP increase in CHO cells stably expressing GLP-1R; 30 minutes incubation; 10 point dose response", "method": "GLP-1R Activation—cAMP Assay 1\nGLP-1R activation by a compound of the present disclosure was quantified by measuring cAMP increase in CHO cells stably expressing GLP-1R (MultiSpan product #C1267-1a). The cells were harvested and plated in growth medium (DMEM/F-12 (Corning product #10-090-CV) supplemented with 10% FBS (HyClone product #SH30071-03), penicillin/streptomycin (Corning product #30-002CI) and 10 µg/ml puromycin (Gibco product #A11138-03)) at 1,000 cells/well in a 384-well plate (Greiner product #781080). The cells were then incubated overnight at 37° C., 5% CO2. The next day, the medium was removed and the cells were washed with DPBS (Corning product #21-031-CM) before adding the assay medium (HBSS, Corning product #21-023-CV) with 20 mM Hepes (Gibco product #15630-080) and 0.1% BSA (Rockland Immunochemicals product #BSA-1000)). Following the medium change, the cells were incubated for 1 hour at 37° C., 5% CO2. The tested GLP-1 compound was added to the cells in a 10 point dose response followed by a 30 minutes incubation at 37° C., 5% CO2. cAMP concentration increase was then detected using Cisbio's cAMP Gs Dynamic Kit (product #62AM4PEC) according to the manufacturer's protocol. The response was plotted against the log of the agonist concentration and fitted to a sigmoidal equation to determine the EC50.", "data": [{"molecule": "COCCn1c(CN2CCC(c3cccc(OCc4cccc5c4OC(F)(F)O5)n3)CC2)nc2ccc(C(=O)O)cc21", "note": "[Example 1, 2-((4-(6-((2,2-difluorobenzo[d][1,3]dioxol-4-yl)methoxy)pyridin-2-yl)piperidin-1-yl)methyl)-1-(2-methoxyethyl)-1H-benzo[d]imidazole-6-carboxylic acid]", "values": [{"measurement": "EC50", "result": 28.5, "unit": "nM"}]}, {"molecule": "COCCn1c(CN2CCC(c3cccc(OCc4ccc(C(O)(C(F)(F)F)C(F)(F)F)cc4)n3)CC2)nc2ccc(C(=O)O)cc21", "note": "[Example 2, 2-((4-(6-((4-(1,1,1,3,3,3-hexafluoro-2-hydroxypropan-2-yl)benzyl)oxy)pyridin-2-yl)piperidin-1-yl)methyl)-1-(2-methoxyethyl)-1H-benzo[d]imidazole-6-carboxylic acid]", "values": [{"measurement": "EC50", "result": 1260, "unit": "nM"}]}, {"molecule": "COCCn1c(CN2CCC(c3cccc(OCc4ccc5ncccc5c4)n3)CC2)nc2ccc(C(=O)O)cc21", "note": "[Example 3, 1-(2-methoxyethyl)-2-((4-(6-(quinolin-6-ylmethoxy)pyridin-2-yl)piperidin-1-yl)methyl)-1H-benzo[d]imidazole-6-carboxylic acid]", "values": [{"measurement": "EC50", "result": 32.4, "unit": "nM"}]}, {"molecule": "COCCn1c(CN2CCC(c3cccc(OCc4ccc(Cl)c5ccccc45)n3)CC2)nc2ccc(C(=O)O)cc21", "note": "[Example 4, 2-((4-(6-((4-chloronaphthalen-1-yl)methoxy)pyridin-2-yl)piperidin-1-yl)methyl)-1-(2-methoxyethyl)-1H-benzo[d]imidazole-6-carboxylic acid]", "values": [{"measurement": "EC50", "result": 39.9, "unit": "nM"}]}, {"molecule": "COCCn1c(CN2CCC(c3cccc(OCc4cccc5ccccc45)n3)CC2)nc2ccc(C(=O)O)cc21", "note": "[Example 5, 1-(2-methoxyethyl)-2-((4-(6-(naphthalen-1-ylmethoxy)pyridin-2-yl)piperidin-1-yl)methyl)-1H-benzo[d]imidazole-6-carboxylic acid]", "values": [{"measurement": "EC50", "result": 50.6, "unit": "nM"}]}, {"molecule": "COCCn1c(CN2CCC(c3cccc(OCc4ccc5c(c4)OC(F)(F)O5)n3)CC2)nc2ccc(C(=O)O)cc21", "note": "[Example 6, 2-((4-(6-((2,2-difluorobenzo[d][1,3]dioxol-5-yl)methoxy)pyridin-2-yl)piperidin-1-yl)methyl)-1-(2-methoxyethyl)-1H-benzo[d]imidazole-6-carboxylic acid]", "values": [{"measurement": "EC50", "result": 10.5, "unit": "nM"}]}, {"molecule": "COCCn1c(CN2CCC(c3cccc(OCc4ccc5c(c4)OCO5)n3)CC2)nc2ccc(C(=O)O)cc21", "note": "[Example 7, 2-((4-(6-(benzo[d][1,3]dioxol-5-ylmethoxy)pyridin-2-yl)piperidin-1-yl)methyl)-1-(2-methoxyethyl)-1H-benzo[d]imidazole-6-carboxylic acid]", "values": [{"measurement": "EC50", "result": 4920, "unit": "nM"}]}, {"molecule": "COCCn1c(CN2CCC(c3cccc(OCc4cccc5c4cnn5C)n3)CC2)nc2ccc(C(=O)O)cc21", "note": "[Example 8, 1-(2-methoxyethyl)-2-((4-(6-((1-methyl-1H-indazol-4-yl)methoxy)pyridin-2-yl)piperidin-1-yl)methyl)-1H-benzo[d]imidazole-6-carboxylic acid]", "values": [{"measurement": "EC50", "result": 1310, "unit": "nM"}]}, {"molecule": "COCCn1c(CN2CCC(c3cccc(OCc4ccc(S(C)(=O)=O)cc4)n3)CC2)nc2ccc(C(=O)O)cc21", "note": "[Example 9, 1-(2-methoxyethyl)-2-((4-(6-((4-(methylsulfonyl)benzyl)oxy)pyridin-2-yl)piperidin-1-yl)methyl)-1H-benzo[d]imidazole-6-carboxylic acid]", "values": [{"measurement": "EC50", "result": 1190, "unit": "nM"}]}, {"molecule": "COCCn1c(CN2CCC(c3cccc(OCc4cccc(-c5noc(C)n5)c4)n3)CC2)nc2ccc(C(=O)O)cc21", "note": "[Example 10, 1-(2-methoxyethyl)-2-((4-(6-((3-(5-methyl-1,2,4-oxadiazol-3-yl)benzyl)oxy)pyridin-2-yl)piperidin-1-yl)methyl)-1H-benzo[d]imidazole-6-carboxylic acid]", "values": [{"measurement": "EC50", "result": 66.9, "unit": "nM"}]}, {"molecule": "COCCn1c(CN2CCC(c3cccc(OCc4ccc(C(=O)N(C)C)cc4F)n3)CC2)nc2ccc(C(=O)O)cc21", "note": "[Example 11, 2-((4-(6-((4-(dimethylcarbamoyl)-2-fluorobenzyl)oxy)pyridin-2-yl)piperidin-1-yl)methyl)-1-(2-methoxyethyl)-1H-benzo[d]imidazole-6-carboxylic acid]", "values": [{"measurement": "EC50", "result": 9910, "unit": "nM"}]}, {"molecule": "COCCn1c(CN2CCC(c3cccc(OCc4ccc(-c5ccccc5)cc4)n3)CC2)nc2ccc(C(=O)O)cc21", "note": "[Example 12, 2-((4-(6-([1,1′-biphenyl]-4-ylmethoxy)pyridin-2-yl)piperidin-1-yl)methyl)-1-(2-methoxyethyl)-1H-benzo[d]imidazole-6-carboxylic acid]", "values": [{"measurement": "EC50", "result": 1070, "unit": "nM"}]}, {"molecule": "C#Cc1ccc(COc2cccc(C3CCN(Cc4nc5ccc(C(=O)O)cc5n4CCOC)CC3)n2)cc1", "note": "[Example 13, 2-((4-(6-((4-ethynylbenzyl)oxy)pyridin-2-yl)piperidin-1-yl)methyl)-1-(2-methoxyethyl)-1H-benzo[d]imidazole-6-carboxylic acid]", "values": [{"measurement": "EC50", "result": 22.2, "unit": "nM"}]}, {"molecule": "COCCn1c(CN2CCC(c3cccc(OCc4c(F)c(F)c(F)c(F)c4F)n3)CC2)nc2ccc(C(=O)O)cc21", "note": "[Example 14, 1-(2-methoxyethyl)-2-((4-(6-((perfluorophenyl)methoxy)pyridin-2-yl)piperidin-1-yl)methyl)-1H-benzo[d]imidazole-6-carboxylic acid]", "values": [{"measurement": "EC50", "result": "> 100", "unit": "nM"}]}, {"molecule": "COCCn1c(CN2CCC(c3cccc(OCc4ccc(C#N)c5ccccc45)n3)CC2)nc2ccc(C(=O)O)cc21", "note": "[Example 25, 2-((4-(6-((4-cyanonaphthalen-1-yl)methoxy)pyridin-2-yl)piperidin-1-yl)methyl)-1-(2-methoxyethyl)-1H-benzo[d]imidazole-6-carboxylic acid]", "values": [{"measurement": "EC50", "result": 11.3, "unit": "nM"}]}, {"molecule": "COCCn1c(CN2CCC(c3cccc(OCc4ccc5cnccc5c4)n3)CC2)nc2ccc(C(=O)O)cc21", "note": "[Example 26, 2-[[4-[6-(6-isoquinolylmethoxy)-2-pyridyl]-1-piperidyl]methyl]-3-(2-methoxyethyl)benzimidazole-5-carboxylic acid]", "values": [{"measurement": "EC50", "result": 41.3, "unit": "nM"}]}, {"molecule": "COCCn1c(CN2CCC(c3cccc(OCc4ccc5nonc5c4)n3)CC2)nc2ccc(C(=O)O)cc21", "note": "[Example 27, 2-((4-(6-(benzo[c][1,2,5]oxadiazol-5-ylmethoxy)pyridin-2-yl)piperidin-1-yl)methyl)-1-(2-methoxyethyl)-1H-benzo[d]imidazole-6-carboxylic acid]", "values": [{"measurement": "EC50", "result": 66.8, "unit": "nM"}]}, {"molecule": "COCCn1c(CN2CCC(c3cccc(OCc4ccc5ncsc5c4)n3)CC2)nc2ccc(C(=O)O)cc21", "note": "[Example 28, 2-((4-(6-(benzo[d]thiazol-6-ylmethoxy)pyridin-2-yl)piperidin-1-yl)methyl)-1-(2-methoxyethyl)-1H-benzo[d]imidazole-6-carboxylic acid]", "values": [{"measurement": "EC50", "result": 60.8, "unit": "nM"}]}, {"molecule": "COCCn1c(CN2CCC(c3cccc(OCc4ccc(C(C)(C)O)cc4)n3)CC2)nc2ccc(C(=O)O)cc21", "note": "[Example 29, 2-((4-(6-((4-(2-hydroxypropan-2-yl)benzyl)oxy)pyridin-2-yl)piperidin-1-yl)methyl)-1-(2-methoxyethyl)-1H-benzo[d]imidazole-6-carboxylic acid]", "values": [{"measurement": "EC50", "result": 1440, "unit": "nM"}]}, {"molecule": "COCCn1c(CN2CCC(c3cccc(OCc4ccc(COC)cc4)n3)CC2)nc2ccc(C(=O)O)cc21", "note": "[Example 30, 1-(2-methoxyethyl)-2-((4-(6-((4-(methoxymethyl)benzyl)oxy)pyridin-2-yl)piperidin-1-yl)methyl)-1H-benzo[d]imidazole-6-carboxylic acid]", "values": [{"measurement": "EC50", "result": 297, "unit": "nM"}]}, {"molecule": "COCCn1c(CN2CCC(c3cccc(OCc4ccc(Cl)c5occc45)n3)CC2)nc2ccc(C(=O)O)cc21", "note": "[Example 31, 2-((4-(6-((7-chlorobenzofuran-4-yl)methoxy)pyridin-2-yl)piperidin-1-yl)methyl)-1-(2-methoxyethyl)-1H-benzo[d]imidazole-6-carboxylic acid]", "values": [{"measurement": "EC50", "result": 29, "unit": "nM"}]}, {"molecule": "COCCn1c(CN2CCC(c3cccc(OCc4cccc5occc45)n3)CC2)nc2ccc(C(=O)O)cc21", "note": "[Example 32, 2-((4-(6-(benzofuran-4-ylmethoxy)pyridin-2-yl)piperidin-1-yl)methyl)-1-(2-methoxyethyl)-1H-benzo[d]imidazole-6-carboxylic acid]", "values": [{"measurement": "EC50", "result": 261, "unit": "nM"}]}, {"molecule": "COCCn1c(CN2CCC(c3cccc(OCc4cccc5[nH]cnc45)n3)CC2)nc2ccc(C(=O)O)cc21", "note": "[Example 33, 2-((4-(6-((1H-benzo[d]imidazol-4-yl)methoxy)pyridin-2-yl)piperidin-1-yl)methyl)-1-(2-methoxyethyl)-1H-benzo[d]imidazole-6-carboxylic acid]", "values": [{"measurement": "EC50", "result": "> 10000", "unit": "nM"}]}, {"molecule": "COCCn1c(CN2CCC(c3cccc(OCc4cccc5scnc45)n3)CC2)nc2ccc(C(=O)O)cc21", "note": "[Example 34, 2-((4-(6-(benzo[d]thiazol-4-ylmethoxy)pyridin-2-yl)piperidin-1-yl)methyl)-1-(2-methoxyethyl)-1H-benzo[d]imidazole-6-carboxylic acid]", "values": [{"measurement": "EC50", "result": 19.8, "unit": "nM"}]}, {"molecule": "COCCn1c(CN2CCC(c3cccc(OCc4ccc5ccncc5c4)n3)CC2)nc2ccc(C(=O)O)cc21", "note": "[Example 35, 2-((4-(6-(isoquinolin-7-ylmethoxy)pyridin-2-yl)piperidin-1-yl)methyl)-1-(2-methoxyethyl)-1H-benzo[d]imidazole-6-carboxylic acid]", "values": [{"measurement": "EC50", "result": 48.5, "unit": "nM"}]}, {"molecule": "COCCn1c(CN2CCC(c3cccc(OCc4ccc5cccnc5c4)n3)CC2)nc2ccc(C(=O)O)cc21", "note": "[Example 36, 1-(2-methoxyethyl)-2-((4-(6-(quinolin-7-ylmethoxy)pyridin-2-yl)piperidin-1-yl)methyl)-1H-benzo[d]imidazole-6-carboxylic acid]", "values": [{"measurement": "EC50", "result": 124, "unit": "nM"}]}]}
